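Method: 48-hour compound exposure of cells in 96-well plates, five concentrations, linear interpolation of endpoints. GI50: concentration for 50% inhibition of growth.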 Active and inactive are the calls of the source. Cut-off read from the data, not from the text of the source: active = GI50 up to about 1.1 µM and inactive = higher.
Experiments:
Test in all cases: DTP human tumour cell line panel, 48 h
K562 = tested on: K562
DMS-114 = tested on: DMS-114
CCRF-CEM = tested on: CCRF-CEM
NCI-H460 = tested on: NCI-H460
NCI-H226 = tested on: NCI-H226
DMS-273 = tested on: DMS-273
SK-MEL-5 = tested on: SK-MEL-5
EKVX = tested on: EKVX
RXF 393 = tested on: RXF 393
KM12 = tested on: KM12
SNB-75 = tested on: SNB-75
MOLT-4 = tested on: MOLT-4
NCI-H522 = tested on: NCI-H522
M19-MEL = tested on: M19-MEL
ACHN = tested on: ACHN
SK-MEL-28 = tested on: SK-MEL-28
SW-620 = tested on: SW-620
HL-60 = tested on: HL-60
HOP-92 = tested on: HOP-92
HOP-18 = tested on: HOP-18
786-0 = tested on: 786-0
SN12C = tested on: SN12C
U-251 = tested on: U-251
Malme-3M = tested on: Malme-3M
XF498 = tested on: XF498
DLD-1 = tested on: DLD-1
LOX IMVI = tested on: LOX IMVI
IGROV-1 = tested on: IGROV-1
CAKI-1 = tested on: CAKI-1
A549 = tested on: A549
SK-OV-3 = tested on: SK-OV-3
UACC-257 = tested on: UACC-257
COLO 205 = tested on: COLO 205
SNB-19 = tested on: SNB-19
SF-295 = tested on: SF-295
OVCAR-4 = tested on: OVCAR-4
HCC 2998 = tested on: HCC 2998
A498 = tested on: A498
KM-20L2 = tested on: KM-20L2
SF-539 = tested on: SF-539
NCI-H23 = tested on: NCI-H23
SK-MEL-2 = tested on: SK-MEL-2
RPMI-8226 = tested on: RPMI-8226
HOP-62 = tested on: HOP-62
OVCAR-5 = tested on: OVCAR-5
LXFL 529 = tested on: LXFL 529
SF-268 = tested on: SF-268
OVCAR-8 = tested on: OVCAR-8
HCT-15 = tested on: HCT-15
TK-10 = tested on: TK-10
M14 = tested on: M14
UO-31 = tested on: UO-31
HT-29 = tested on: HT-29
HCT-116 = tested on: HCT-116
OVCAR-3 = tested on: OVCAR-3
SNB-78 = tested on: SNB-78
NCI/ADR-RES = tested on: NCI/ADR-RES
MCF7 = tested on: MCF7
UACC-62 = tested on: UACC-62

`O=C1CCC(=O)c2ccccc2N1` was tested, and the GI50 (K562) was > 100 µM (inactive), the GI50 (DMS-114) was > 100 µM (inactive) and the GI50 (CCRF-CEM) was > 100 µM (inactive). The GI50 (NCI-H460) was > 100 µM (inactive), the GI50 (NCI-H226) was > 100 µM (inactive) and the GI50 (DMS-273) was > 100 µM (inactive). For the same compound, the GI50 (SK-MEL-5) was > 100 µM (inactive), the GI50 (EKVX) was > 100 µM (inactive) and the GI50 (RXF 393) was > 100 µM (inactive). The GI50 (KM12) was > 100 µM (inactive), the GI50 (SNB-75) was > 100 µM (inactive) and the GI50 (MOLT-4) was > 100 µM (inactive). The GI50 (NCI-H522) was > 100 µM (inactive), the GI50 (M19-MEL) was > 100 µM (inactive) and the GI50 (ACHN) was > 100 µM (inactive). The GI50 (SK-MEL-28) was > 100 µM (inactive), the GI50 (SW-620) was > 100 µM (inactive) and the GI50 (HL-60) was > 100 µM (inactive). For the same compound, the GI50 (HOP-92) was > 100 µM (inactive), the GI50 (HOP-18) was > 100 µM (inactive) and the GI50 (786-0) was > 100 µM (inactive). For the same compound, the GI50 (SN12C) was > 100 µM (inactive), the GI50 (U-251) was > 100 µM (inactive) and the GI50 (Malme-3M) was > 100 µM (inactive). The GI50 (XF498) was > 100 µM (inactive), the GI50 (DLD-1) was > 100 µM (inactive) and the GI50 (LOX IMVI) was > 100 µM (inactive). The GI50 (IGROV-1) was > 100 µM (inactive), the GI50 (CAKI-1) was > 100 µM (inactive) and the GI50 (A549) was > 100 µM (inactive). The GI50 (SK-OV-3) was > 100 µM (inactive), the GI50 (UACC-257) was > 100 µM (inactive) and the GI50 (COLO 205) was > 100 µM (inactive). The GI50 (SNB-19) was > 100 µM (inactive), the GI50 (SF-295) was > 100 µM (inactive) and the GI50 (OVCAR-4) was > 100 µM (inactive). The GI50 (HCC 2998) was > 100 µM (inactive), the GI50 (A498) was > 100 µM (inactive) and the GI50 (KM-20L2) was > 100 µM (inactive). For the same compound, the GI50 (SF-539) was > 100 µM (inactive), the GI50 (NCI-H23) was > 100 µM (inactive) and the GI50 (SK-MEL-2) was > 100 µM (inactive). For the same compound, the GI50 (RPMI-8226) was > 100 µM (inactive), the GI50 (HOP-62) was > 100 µM (inactive) and the GI50 (OVCAR-5) was > 100 µM (inactive). The GI50 (LXFL 529) was > 100 µM (inactive), the GI50 (SF-268) was > 100 µM (inactive) and the GI50 (OVCAR-8) was > 100 µM (inactive). For the same compound, the GI50 (HCT-15) was greater than 100 µM, the GI50 (TK-10) was > 100 µM (inactive) and the GI50 (M14) was > 100 µM (inactive). The GI50 (UO-31) was > 100 µM (inactive), the GI50 (HT-29) was > 100 µM (inactive) and the GI50 (HCT-116) was > 100 µM (inactive). The GI50 (OVCAR-3) was > 100 µM (inactive).
In the case of `O=Cc1c(Br)[nH]c2ccccc12`, the GI50 (K562) is reported as > 100 µM (inactive), the GI50 (CCRF-CEM) is reported as 96.6 µM (inactive) and the GI50 (NCI-H460) is reported as > 100 µM (inactive). For the same compound, the GI50 (NCI-H226) was > 58.3 µM (inactive), the GI50 (DMS-273) was > 100 µM (inactive) and the GI50 (SK-MEL-5) was 45.4 µM (inactive). The GI50 (EKVX) was > 100 µM (inactive), the GI50 (RXF 393) was > 100 µM (inactive) and the GI50 (KM12) was > 100 µM (inactive). The GI50 (SNB-75) was 28.8 µM (inactive), the GI50 (MOLT-4) was 27 µM (inactive) and the GI50 (NCI-H522) was 61.2 µM (inactive). The GI50 (M19-MEL) was > 79.6 µM (inactive), the GI50 (SK-MEL-28) was > 100 µM (inactive) and the GI50 (SW-620) was > 100 µM (inactive). For the same compound, the GI50 (HL-60) was 9.55 µM (inactive), the GI50 (HOP-92) was 29.6 µM (inactive) and the GI50 (HOP-18) was 61.1 µM (inactive). The GI50 (SN12C) was > 100 µM (inactive), the GI50 (U-251) was 89.3 µM (inactive) and the GI50 (Malme-3M) was > 100 µM (inactive). For the same compound, the GI50 (XF498) was > 100 µM (inactive), the GI50 (DLD-1) was > 100 µM (inactive) and the GI50 (LOX IMVI) was 71.6 µM (inactive). For the same compound, the GI50 (IGROV-1) was > 81.1 µM (inactive), the GI50 (A549) was > 100 µM (inactive) and the GI50 (SK-OV-3) was 94.4 µM (inactive). The GI50 (SNB-78) was > 67 µM (inactive), the GI50 (UACC-257) was 26.9 µM (inactive) and the GI50 (COLO 205) was 97.9 µM (inactive). The GI50 (SF-295) was 75.2 µM (inactive), the GI50 (OVCAR-4) was 56.8 µM (inactive) and the GI50 (HCC 2998) was > 100 µM (inactive). The GI50 (A498) was > 100 µM (inactive), the GI50 (KM-20L2) was > 100 µM (inactive) and the GI50 (SF-539) was > 100 µM (inactive). The GI50 (NCI-H23) was > 100 µM (inactive), the GI50 (SK-MEL-2) was 75.3 µM (inactive) and the GI50 (RPMI-8226) was 19.3 µM (inactive). For the same compound, the GI50 (HOP-62) was > 100 µM (inactive), the GI50 (NCI/ADR-RES) was > 100 µM (inactive) and the GI50 (OVCAR-5) was > 91.4 µM (inactive). For the same compound, the GI50 (SF-268) was > 100 µM (inactive), the GI50 (OVCAR-8) was > 100 µM (inactive) and the GI50 (HCT-15) was greater than 100 µM. For the same compound, the GI50 (UO-31) was 39.9 µM (inactive), the GI50 (MCF7) was 47 µM (inactive) and the GI50 (HT-29) was > 100 µM (inactive). For the same compound, the GI50 (HCT-116) was 84.7 µM (inactive), the GI50 (UACC-62) was 47 µM (inactive) and the GI50 (OVCAR-3) was > 100 µM (inactive).
With `COc1nc(O)c(N)c(NC2OC(CO)C(O)C(O)C2O)n1` (centres undefined) the GI50 (K562) was > 90.8 µM (inactive), the GI50 (DMS-114) was > 100 µM (inactive) and the GI50 (CCRF-CEM) was > 57.8 µM (inactive). The GI50 (NCI-H460) was > 100 µM (inactive), the GI50 (NCI-H226) was > 31.6 µM (inactive) and the GI50 (DMS-273) was > 100 µM (inactive). For the same compound, the GI50 (SK-MEL-5) was > 100 µM (inactive), the GI50 (EKVX) was > 100 µM (inactive) and the GI50 (RXF 393) was > 100 µM (inactive). For the same compound, the GI50 (KM12) was > 100 µM (inactive), the GI50 (SNB-75) was > 100 µM (inactive) and the GI50 (MOLT-4) was > 100 µM (inactive). For the same compound, the GI50 (NCI-H522) was > 100 µM (inactive), the GI50 (M19-MEL) was > 100 µM (inactive) and the GI50 (SK-MEL-28) was > 100 µM (inactive). The GI50 (SW-620) was > 100 µM (inactive), the GI50 (HL-60) was > 82.8 µM (inactive) and the GI50 (HOP-92) was > 100 µM (inactive). For the same compound, the GI50 (HOP-18) was > 100 µM (inactive), the GI50 (SN12C) was > 100 µM (inactive) and the GI50 (U-251) was > 100 µM (inactive). For the same compound, the GI50 (Malme-3M) was > 100 µM (inactive), the GI50 (XF498) was > 100 µM (inactive) and the GI50 (DLD-1) was > 100 µM (inactive). For the same compound, the GI50 (LOX IMVI) was > 100 µM (inactive), the GI50 (IGROV-1) was > 100 µM (inactive) and the GI50 (A549) was > 100 µM (inactive). The GI50 (SK-OV-3) was > 100 µM (inactive), the GI50 (SNB-78) was > 100 µM (inactive) and the GI50 (UACC-257) was > 100 µM (inactive). For the same compound, the GI50 (COLO 205) was > 100 µM (inactive), the GI50 (SNB-19) was > 100 µM (inactive) and the GI50 (SF-295) was > 100 µM (inactive). For the same compound, the GI50 (OVCAR-4) was > 100 µM (inactive), the GI50 (HCC 2998) was > 100 µM (inactive) and the GI50 (A498) was > 100 µM (inactive). The GI50 (KM-20L2) was > 100 µM (inactive), the GI50 (SF-539) was > 100 µM (inactive) and the GI50 (NCI-H23) was > 100 µM (inactive). The GI50 (SK-MEL-2) was > 100 µM (inactive), the GI50 (RPMI-8226) was > 100 µM (inactive) and the GI50 (HOP-62) was > 100 µM (inactive). For the same compound, the GI50 (NCI/ADR-RES) was > 100 µM (inactive), the GI50 (OVCAR-5) was > 100 µM (inactive) and the GI50 (SF-268) was > 100 µM (inactive). For the same compound, the GI50 (OVCAR-8) was > 100 µM (inactive), the GI50 (HCT-15) was greater than 100 µM and the GI50 (UO-31) was > 100 µM (inactive). The GI50 (MCF7) was > 100 µM (inactive), the GI50 (HT-29) was > 100 µM (inactive) and the GI50 (HCT-116) was > 100 µM (inactive). The GI50 (UACC-62) was > 100 µM (inactive) and the GI50 (OVCAR-3) was > 100 µM (inactive).
